# Key:
# [1] = test system: HepG2 human hepatocellular liver carcinoma cell line; experiment: MTT cytotoxicity assay in HepG2 cells: IC50 of single agents and combinations with PM01183; format: cell-based; conditions: Homo sapiens, HepG2, 72 h
# [2] = test system: HT-29 tumors; experiment: Human colorectal tumor xenografts (HT-29) in athymic nude mice, tumor volume % T/C
# [3] = test system: A673 human rhabdomyosarcoma cell line; experiment: cells; conditions: Homo sapiens, A673, 72 h
# Method in brief: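 A673 cells seeded at 5,000 per well, grown 24 h drug-free, then exposed to compounds for 72 h. Viability by MTT reduction (8 h, 37 °C), formazan dissolved in DMSO. Results expressed as percentage of control cell growth.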
# [4] = test system: U87-MG tumors; experiment: Human brain tumor xenografts (U87-MG) in athymic nude mice, tumor volume % T/C; format: in vivo
# Experimental: Female athymic nude mice (Harlan Laboratories Models, S.L. (Barcelona, Spain) were utilized for all experiments. Animals were housed in individually ventilated cages, up to ten per cage in a 12-hour light-dark cycle at 21-23° C. and 40-60% humidity. The mice were allowed free access to irradiated standard rodent diet and sterilized water. Animals were acclimated for at least 5 days prior to tumor implantation with a tumor cell suspension.
# The tumor model used in these studies was U87-MG cell line, which was obtained from the American Type Culture Collection (ATCC HTB-14™).
# U87-MG cells were grown at 37° C. with 5% CO2 in Minimum Essential Medium Eagle (MEME). Each animal was subcutaneously implanted on the right flank, using 26G needle and a 1 cc syringe, with 5×10^6 U87-MG cells, from in vitro passage 5, in 0.05 mL suspension of 50% Matrigel and 50% serum free medium, without antibiotics.
# PM01183 was provided in the form of vials of lyophilized PM01183 cake which was reconstituted with water for infusion to a concentration of 0.2 mg/mL. The PM01183 stock solution was further diluted in 5% glucose solution for injection to the dosing formulation concentrations. Temozolomide was provided as a solution prepared by diluting the product in DMSO 10% in 0.9% saline solution for injection to the target final concentration.
# In these experiments, PM01183 and temozolomide treatments, as well as placebo, were administered as follows: PM01183, intravenously once per week up to 3 consecutive weeks, on Days 0, 7 and 14, temozolomide orally, in a daily basis during 8 consecutive days (Days 0 to 7), and placebo was administered following the same schedule as those provided for PM01183 and temozolomide. Dose level groups were administered either as single agents or in combination.
# Comparison of the median tumor volume in the treatment groups (T) to the median tumor volume in the control group (T/C×100%) was used for evaluation of the antitumor efficacy.
compound,measurement,setting,value
COc1ccc2[nH]c3c(c2c1)CCN[C@]31CS[C@@H]2c3c(OC(C)=O)c(C)c4c(c3[C@H](COC1=O)N1[C@@H]2[C@H]2c3c(cc(C)c(OC)c3O)C[C@@H]([C@@H]1O)N2C)OCO4 [PM01183],IC50,[1],2.5 nM
same,% T/C on day 0,[2]; PM01183 0.045 mg/kg,99.8%
same,% T/C on day 3,[2]; PM01183 0.045 mg/kg,103.7%
same,% T/C on day 5,[2]; PM01183 0.045 mg/kg,100.6%
same,% T/C on day 7,[2]; PM01183 0.045 mg/kg,111.1%
same,% T/C on day 10,[2]; PM01183 0.045 mg/kg,135.8%
same,% T/C on day 12,[2]; PM01183 0.045 mg/kg,125.1%
same,% T/C on day 14,[2]; PM01183 0.045 mg/kg,109.3%
same,% T/C on day 0,[2]; PM01183 0.09 mg/kg,98.4%
same,% T/C on day 3,[2]; PM01183 0.09 mg/kg,100.9%
same,% T/C on day 5,[2]; PM01183 0.09 mg/kg,88.7%
same,% T/C on day 7,[2]; PM01183 0.09 mg/kg,121.9%
same,% T/C on day 10,[2]; PM01183 0.09 mg/kg,129.8%
same,% T/C on day 12,[2]; PM01183 0.09 mg/kg,114.1%
same,% T/C on day 14,[2]; PM01183 0.09 mg/kg,109.4%
same,% T/C on day 17,[2]; PM01183 0.09 mg/kg,116.1%
same,% T/C on day 20,[2]; PM01183 0.09 mg/kg,93.4%
same,% T/C on day 0,[2]; PM01183 0.135 mg/kg,98.4%
same,% T/C on day 3,[2]; PM01183 0.135 mg/kg,106.4%
same,% T/C on day 5,[2]; PM01183 0.135 mg/kg,95.3%
same,% T/C on day 7,[2]; PM01183 0.135 mg/kg,116.6%
same,% T/C on day 10,[2]; PM01183 0.135 mg/kg,115.2%
same,% T/C on day 12,[2]; PM01183 0.135 mg/kg,119.1%
same,% T/C on day 14,[2]; PM01183 0.135 mg/kg,121.5%
same,% T/C on day 17,[2]; PM01183 0.135 mg/kg,133.1%
same,% T/C on day 20,[2]; PM01183 0.135 mg/kg,105.2%
same,% T/C on day 0,[2]; PM01183 0.18 mg/kg,100.4%
same,% T/C on day 3,[2]; PM01183 0.18 mg/kg,108.4%
same,% T/C on day 5,[2]; PM01183 0.18 mg/kg,86.5%
same,% T/C on day 7,[2]; PM01183 0.18 mg/kg,101.1%
same,% T/C on day 10,[2]; PM01183 0.18 mg/kg,116.5%
same,% T/C on day 12,[2]; PM01183 0.18 mg/kg,115.4%
same,% T/C on day 14,[2]; PM01183 0.18 mg/kg,123.4%
same,% T/C on day 17,[2]; PM01183 0.18 mg/kg,86.7%
same,% T/C on day 20,[2]; PM01183 0.18 mg/kg,77.5%
same,IC50,[3],2.2 nM
same,% T/C on day 0,[4]; PM01183 0.045 mg/kg,98.2%
same,% T/C on day 2,[4]; PM01183 0.045 mg/kg,101.0%
same,% T/C on day 4,[4]; PM01183 0.045 mg/kg,80.4%
same,% T/C on day 7,[4]; PM01183 0.045 mg/kg,83.8%
same,% T/C on day 9,[4]; PM01183 0.045 mg/kg,78.8%
same,% T/C on day 11,[4]; PM01183 0.045 mg/kg,77.7%
same,% T/C on day 14,[4]; PM01183 0.045 mg/kg,76.7%
same,% T/C on day 16,[4]; PM01183 0.045 mg/kg,82.5%
same,% T/C on day 0,[4]; PM01183 0.09 mg/kg,97.9%
same,% T/C on day 2,[4]; PM01183 0.09 mg/kg,99.5%
same,% T/C on day 4,[4]; PM01183 0.09 mg/kg,74.4%
same,% T/C on day 7,[4]; PM01183 0.09 mg/kg,85.1%
same,% T/C on day 9,[4]; PM01183 0.09 mg/kg,69.4%
same,% T/C on day 11,[4]; PM01183 0.09 mg/kg,71.8%
same,% T/C on day 14,[4]; PM01183 0.09 mg/kg,74.1%
same,% T/C on day 16,[4]; PM01183 0.09 mg/kg,73.5%
same,% T/C on day 0,[4]; PM01183 0.135 mg/kg,98.5%
same,% T/C on day 2,[4]; PM01183 0.135 mg/kg,90.5%
same,% T/C on day 4,[4]; PM01183 0.135 mg/kg,61.2%
same,% T/C on day 7,[4]; PM01183 0.135 mg/kg,71.3%
same,% T/C on day 9,[4]; PM01183 0.135 mg/kg,67.7%
same,% T/C on day 11,[4]; PM01183 0.135 mg/kg,65.3%
same,% T/C on day 14,[4]; PM01183 0.135 mg/kg,64.2%
same,% T/C on day 16,[4]; PM01183 0.135 mg/kg,63.6%
same,% T/C on day 0,[4]; PM01183 0.18 mg/kg,99.8%
same,% T/C on day 2,[4]; PM01183 0.18 mg/kg,95.5%
same,% T/C on day 4,[4]; PM01183 0.18 mg/kg,64.8%
same,% T/C on day 7,[4]; PM01183 0.18 mg/kg,63.2%
same,% T/C on day 9,[4]; PM01183 0.18 mg/kg,52.0%
same,% T/C on day 11,[4]; PM01183 0.18 mg/kg,44.1%
same,% T/C on day 14,[4]; PM01183 0.18 mg/kg,38.5%
same,% T/C on day 16,[4]; PM01183 0.18 mg/kg,37.1%

# Reference: patent publication US11590129B2, “Combination therapy with an antitumor alkaloid” (PHARMA MAR, S.A., priority 2010, dated 2023)
